# Test results: publication PMC3155955 (Bioorganic & medicinal chemistry letters, 2011)
# pIC50: −log10 of the molar value.
# Legend:
# [1] = test system: HCT-116 human colon cancer cells; test: MTS cytotoxicity assay, HCT-116; format: cell-based
# [2] = test system: CCD-18Co normal colon fibroblasts; test: MTS cytotoxicity assay, CCD-18Co; format: cell-based, human; conditions: colon cancer cells (HCT-116, Caco-2) vs CCD-18Co
# [3] = test system: Caco-2 human colon cancer cells; test: MTS cytotoxicity assay, Caco-2; format: cell-based; conditions: Caco-2, read-out: IC50 (consistent values of the control)
compound,measurement,setting,value
"COc1cc2c3c(c1O)-c1cc4c(cc1C[C@@H]3N(C)CC2)OCO4 [Compound 1, domesticine]",fold less potent than the benchmark etoposide,[1]; HCT-116 cell line,approximately 3 fold
CCC(CC)COc1c(OC)cc2c3c1-c1cc4c(cc1C[C@@H]3N(C)CC2)OCO4 [Compound 3],selectivity for colon cancer cells vs normal colon fibroblasts (CCD-18Co),[2],approximately 2 fold
COc1cc([C@@H]2c3cc4c(cc3[C@@H](O[C@@H]3O[C@@H]5CO[C@@H](C)O[C@H]5[C@H](O)[C@H]3O)[C@H]3COC(=O)[C@H]23)OCO4)cc(OC)c1O [etoposide],pIC50,"[1]; Homo sapiens, HCT-116, read-out: IC50 (consistent values of the control)",4.60 to 4.82
same,pIC50,[3],4.60 to 4.82
